Assays:
Type in all cases: cell-based
[1] = test system: Escherichia coli (NBRC-3972); experiment: Minimum growth inhibitory concentration (MIC); details: 0.1% by weight agent with 1% by weight NaOH, pH 12.5, stored 18 days at 55° C.
Description: (§1) An aqueous solution containing the antimicrobial agent was serially diluted by two fold with a Mueller-Hinton medium to prepare dilution series of a medium containing the antimicrobial agent. After that, the medium containing the antimicrobial agent at each concentration was added, in an amount of 50 μl each, to a 96 well polystyrene plate. […] The prepared liquid containing microbial cells was diluted to 10×10^6 cells/mL or so in a Mueller-Hinton medium, and added in an amount of 50 μl to each of the dilution series prepared in the above. […] Presence or absence of the growth of the bacterial cells was determined with a naked eye by following an increase in turbidity. To an aqueous solution added with the polymer 1 which has been obtained in Preparation Example 1 and benzalkonium chloride at 0.1% by weight, various kinds of alkali modifying agent shown in Table 8 were mixed at 1% by weight to prepare an antimicrobial agent composition. The storage stability test was carried out for the antimicrobial agent compositions for 18 days at 55° C. […] Meanwhile, MIC values were described as concentration of the antimicrobial agent.

[2] = test system: Staphylococcus aureus (NBRC-12732); experiment: Minimum growth inhibitory concentration (MIC); details: 0.1% by weight agent with 1% by weight NaOH, pH 12.5, stored 18 days at 55° C.
Description: as §1

[3] = test system: Escherichia coli (NBRC-3972) and/or Staphylococcus aureus (NBRC-12732); experiment: MIC in the presence of an anionic surfactant; details: in the presence of linear alkylbenzene sulfate 80 ppm and polyoxyalkylenealkyl ether sulfate 80 ppm
Description: An aqueous solution containing the antimicrobial agent was serially diluted by two fold with a Mueller-Hinton medium to prepare dilution series of a medium containing the antimicrobial agent. After that, the medium containing the antimicrobial agent at each concentration was added, in an amount of 50 μl each, to a 96 well polystyrene plate. Next, colonies of Escherichia coli (NBRC-3972) and/or Staphylococcus aureus (NBRC-12732) which have been grown for 18 hours in a Mueller-Hinton agar medium were suspended in a Butterfield's buffer solution to prepare a liquid containing microbial cells of 10×10^8 cells/mL or so. The prepared liquid containing microbial cells was diluted to 10×10^6 cells/mL or so in a Mueller-Hinton medium, and added in an amount of 50 μl to each of the dilution series prepared in the above. […] Presence or absence of the growth of the bacterial cells was determined with a naked eye by following an increase in turbidity.
As for the anionic surfactant, linear alkylbenzene sulfate was used at 80 ppm and polyoxyalkylenealkyl ether sulfate was used at 80 ppm.

Benzalkonium chloride
MIC Escherichia coli after storage stability test [1]: 250 ppm
MIC Staphylococcus aureus after storage stability test [2]: 250 ppm
MIC [3]: 625 ppm

Reference: patent US10905117B2, “Antimicrobial agent containing polyalkyleneimine derivative” (NIPPON SHOKUBAI CO., LTD, priority 2014, dated 2021)
